These results are taken from patent publication US20240226245A9, “ZIP-IN TECHNOLOGY FOR ANTIVIRAL THERAPEUTIC NANOFORMULATIONS” (PAROLE LABORATORIES INC., priority 2022, published 2024).

This data set can be described thus: Net charge vs pH of the payload molecule. It counts as physicochemical. From the text:
Step 2: This is an essential step. For short payload molecules with a single ionizable group is enough to know pKa, so the useful pH range is pH>pKa+1 for acidic compounds and pH<pKa−1 for basic compounds. For payloads that are macromolecules with multiple different ionizable groups, such as peptides and proteins, must be measured or calculated net charge vs pH dependence for the full pH range (0-14). Provided three examples, refer to FIGS. 1 to 3.
For the vancomycin example, there are two ranges of pH where it is ionized (FIG. 1), one is pH 1 and below and the second range is pH 8 and up. Vancomycin at pH ˜1 acquires net charge +1, however at pH 12, the net charge is −4.5. Therefore, vancomycin must be encapsulated at pH 12 by the disclosed method as a “negatively charged payload”. Note, in the range of pH from 3 to 7.5 it is impossible to encapsulate vancomycin because it has no charge.
Both Cas9 and Cas13 endonucleases have to be encapsulated at pH<4 as “positively charged payloads”.

Turning to `CN[C@H](CC(C)C)C(=O)N[C@H]1C(=O)N[C@@H](CC(N)=O)C(=O)N[C@H]2C(=O)N[C@H]3C(=O)N[C@H](C(=O)N[C@H](C(=O)O)c4cc(O)cc(O)c4-c4cc3ccc4O)[C@H](O)c3ccc(c(Cl)c3)Oc3cc2cc(c3O[C@@H]2O[C@H](CO)[C@@H](O)[C@H](O)[C@H]2O[C@H]2C[C@](C)(N)[C@H](O)[C@H](C)O2)Oc2ccc(cc2Cl)[C@H]1O` [Vancomycin, vancomycin], the net charge reads like this: (pH 12 (FIG. 1)) −4.5; (pH from 3 to 7.5 (FIG. 1)) “no charge”; (pH ˜1 (FIG. 1)) “+1”.
